Measured values: patent US20140342043A1, “Rebaudioside Sweetener Compositions and Food Products Sweetened with Same” (PepsiCo, Inc., priority 2013, published 2014)
Residues, ends and D or L forms follow the SMILES beside them.

Experiments:
[1] = Taste comparison of rebaudioside M with other potent sweeteners in beverages; format: in vivo
[2] = Differential scanning calorimetry (FIG. 4); format: physicochemical; details: second DSC run showing little change
Description: FIG. 4 is a differential scanning calorimetry graph for rebaudioside M.

[3] = tested on: 14 expertly trained panelists; experiment: Sensory studies of sweetness with acidified water samples; format: in vivo, human; details: for Sweetness (score): acidified water, Aspartame 400 ppm, scale 0 to 15, 15 being the sweetest
Method: Sensory studies with two sets of acidified water samples were performed and are described below, where Set 1: HFCS-55 11.7%; Aspartame 400 ppm, and rebaudioside M 400 ppm; and Set 2: Aspartame 400 ppm, Rebaudioside M 400 ppm and Rebaudioside D 400 ppm. The sensory studies were conducted by 14 expertly trained panelists with two evaluations performed for each set. The scale for scoring was 0 to 15, with 15 being the sweetest. The letters shown in Table 2 and Table 3, along with the numerical sweetness values will be understood by those skilled in the art to designate whether or not a statistically significant difference in taste was found. Thus, it can be seen in Table 1 that for Set 1 a statistically significant difference was found between the three sweeteners. It can be seen in Table 2 that for Set 2 a statistically significant difference in sweetness was found for rebaudioside M versus the other two sweeteners. More generally, it can be seen that for both Set 1 and Set 2, rebaudioside M had noticeably higher sweetness values.

[4] = Solubility in cola syrup preparation; format: physicochemical; details: cola syrup for 1-plus-5 throw
Method: Samples of finished ready-to-drink cola beverage were prepared for each of three different formulations. The formulations were identical except that syrup variant 1 used rebaudioside A as the sweetener, syrup variant 2 used rebaudioside D as the sweetener, and syrup variant 3 used rebaudioside M as the sweetener in accordance with one aspect of the invention of the present disclosure. For the ready-to-drink cola beverage samples of formulation variant 1 and formulation variant 3, 2.0 liters of syrup were prepared suitable for use in a 1-plus-5 throw with carbonated water to make the corresponding ready-to-drink cola beverage samples. To prepare variant 1 (comprising rebaudioside A as the sweetener) and variant 3 (comprising rebaudioside M as the sweetener), the ingredients listed in Table 4, below, were added (in the sequence listed) to approximately 1.0-1.5 liter purified water with stirring. Purified water was then added until the syrup was 2 liters in volume. Then 50 mL portions of the syrup were added respectively to 250 mL portions of carbonated water, i.e., a “1-plus-5 throw” to obtain samples of finished ready-to-drink cola beverage corresponding to each of the two syrup variants. […] Specifically, the unsweetened cola beverage samples were made first in sample bottles. Then, to each bottle 400 ppm of Reb D was carefully added in. […]

[5] = Table 2, Rebaudioside D 400 ppm, Rebaudioside M 400 ppm
[6] = Table 3, HFCS-55 11.7%, rebaudioside M 400 ppm

## C=C1C[C@@]23CC[C@H]4[C@@](C)(CCC[C@@]4(C)C(=O)O[C@@H]4O[C@H](CO)[C@@H](O)[C@H](O[C@@H]5O[C@H](CO)[C@@H](O)[C@H](O)[C@H]5O)[C@H]4O[C@@H]4O[C@H](CO)[C@@H](O)[C@H](O)[C@H]4O)[C@@H]2CC[C@]1(O[C@@H]1O[C@H](CO)[C@@H](O)[C@H](O[C@@H]2O[C@H](CO)[C@@H](O)[C@H](O)[C@H]2O)[C@H]1O[C@@H]1O[C@H](CO)[C@@H](O)[C@H](O)[C@H]1O)C3 [Rebaudioside M, rebaudioside M]
[1]; in vivo
  Sweetness intensity relative to Reb A: significantly higher than Reb A
[1]; otherwise identical acidic aqueous carbonated beverages
  Bitterness relative to the same concentration of rebaudioside A: significantly lower bitterness
[2]
  Thermo-stability: good thermo-stability
[3]; [5]
  Sweetness (score): 7.58
[3]; [6]
  Sweetness (score): 8.00
[3]; conclusion from Table 2 and Table 3, 400 ppm in acidified water
  Sweetness relative to other sweeteners: significantly sweeter than aspartame and rebaudioside D

## COC(=O)[C@H](Cc1ccccc1)NC(=O)[C@@H](N)CC(=O)O [Aspartame, reference compound] (H-Asp-Phe-OMe)
[3]; [5]
  Sweetness (score): 6.39
[3]; [6]
  Sweetness (score): 6.30

## C=C1C[C@@]23CC[C@H]4[C@@](C)(CCC[C@@]4(C)C(=O)O[C@@H]4O[C@H](CO)[C@@H](O)[C@H](O)[C@H]4O[C@@H]4O[C@H](CO)[C@@H](O)[C@H](O)[C@H]4O)[C@@H]2CC[C@]1(O[C@@H]1O[C@H](CO)[C@@H](O)[C@H](O[C@@H]2O[C@H](CO)[C@@H](O)[C@H](O)[C@H]2O)[C@H]1O[C@@H]1O[C@H](CO)[C@@H](O)[C@H](O)[C@H]1O)C3 [Rebaudioside D, rebaudioside D, reference compound]
[3]; [5]
  Sweetness (score): 6.97
[4]
  Solubility: poor solubility
